Key:
Test in all cases: MIC, broth microdilution (CLSI), substance alone or ATB combined with compound at 4 or 8 μg/mL
Assay type in all cases: cell-based, A. baumannii
Conditions in all cases: Acinetobacter baumannii, substance alone, read-out: MIC
[1] = tested on: ABA UFR160
How it was run: (§1)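 Growth inhibition endpoint, read visually after 16-20 h at 35° C in ambient air. Cation-adjusted Mueller-Hinton broth, inoculum 5·10^5 CFU/mL, CLSI M7-A7 protocol.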

[2] = tested on: ABA UFR155
How it was run: as §1

[3] = tested on: ABA UFR159
How it was run: as §1

[4] = tested on: ABA UFR154
How it was run: as §1

[5] = tested on: ABA UFR151
How it was run: as §1

[6] = tested on: ABA UFR158
How it was run: as §1

[7] = tested on: ABA 107292
How it was run: as §1

[8] = tested on: ABA UFR156
How it was run: as §1

[9] = tested on: ABA UFR157
How it was run: as §1

[10] = tested on: ABA UFR152
How it was run: as §1

[11] = tested on: ABA UFR153
How it was run: as §1

MIC [1]: > 32 µg/mL
MIC [2]: > 32 µg/mL
MIC [3]: > 32 µg/mL
MIC [4]: > 32 µg/mL
MIC [5]: > 32 µg/mL
MIC [6]: > 32 µg/mL
MIC [7]: > 32 µg/mL
MIC [8]: > 32 µg/mL
MIC [9]: > 32 µg/mL
MIC [10]: > 32 µg/mL
MIC [11]: > 32 µg/mL
SMILES: O=C1N2CC(n3cccn3)=CC(C2)N1OS(=O)(=O)[O-].[Na+] (centres unmarked) [Example 11, sodium (7-oxo-3-pyrazol-1-yl-1,6-diazabicyclo[3.2.1]oct-3-en-6-yl) sulfate]
